The results in this text go back to patent US20240228488A1 (TAKEDA PHARMACEUTICAL COMPANY LIMITED, priority 2021, published 2024).

Molecules are shown by their SMILES. Bounds are passed on as bounds.

human activated kallikrein enzyme, sequence (P03952 391-638 limits assumed): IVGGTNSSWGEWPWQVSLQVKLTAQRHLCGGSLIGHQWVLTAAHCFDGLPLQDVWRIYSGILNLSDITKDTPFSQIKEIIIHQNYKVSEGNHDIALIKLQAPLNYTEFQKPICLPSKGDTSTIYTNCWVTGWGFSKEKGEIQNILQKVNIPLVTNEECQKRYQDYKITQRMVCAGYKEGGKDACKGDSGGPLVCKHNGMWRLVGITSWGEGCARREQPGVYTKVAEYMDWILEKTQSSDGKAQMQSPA
human activated kallikrein enzyme, sequence (P03952 20-390 partner limits assumed): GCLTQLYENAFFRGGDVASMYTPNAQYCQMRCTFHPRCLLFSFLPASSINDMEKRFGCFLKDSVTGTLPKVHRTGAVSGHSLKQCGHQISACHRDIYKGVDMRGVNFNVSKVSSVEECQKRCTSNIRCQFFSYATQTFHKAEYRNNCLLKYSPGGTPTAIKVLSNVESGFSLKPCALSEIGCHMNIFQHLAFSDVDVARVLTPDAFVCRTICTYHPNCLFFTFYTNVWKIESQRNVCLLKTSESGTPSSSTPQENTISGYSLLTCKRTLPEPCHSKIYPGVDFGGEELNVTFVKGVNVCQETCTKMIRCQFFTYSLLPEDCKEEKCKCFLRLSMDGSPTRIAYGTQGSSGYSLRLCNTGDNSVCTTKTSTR

In this assay the target is human activated kallikrein enzyme (Homo sapiens, UniProt P03952). Description: Plasma kallikrein inhibition, fluorogenic PFR-AMC substrate, 500 pM activated kallikrein format. Type of assay: biochemical. The note with it: 500 pM activated kallikrein, 300 uM PFR-AMC, 30 min preincubation, 10 min reaction; read-out: Primary Dose Response Assay: Average EC50. The method in brief:
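Enzyme (500 pM) was preincubated with inhibitor for 30 min at room temperature in 20 mM Tris pH 7.5, 1 mM EDTA, 150 mM NaCl, 0.1% PEG-400 and 0.1% Triton X-100. The reaction was started with 300 uM PFR-AMC, run 10 min, and fluorescence read at 460 nm (380 nm excitation). EC50 derived.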
With `Cc1ccnc([C@H]2C[C@@H]2C(=O)Nc2cc(N[C@@H](C)c3cn4cc(C5CC5)cc(N5CC(=O)N(C)C5=O)c4n3)nc(C)n2)n1` [Example 455, (1S,2S)—N-(6S-((1-(6-cyclopropyl-8-(3-methyl-2,4-dioxoimidazolidin-1-yl)imidazo[1,2-a]pyridin-2-yl)ethyl)amino)-2-methylpyrimidin-4-yl)-2-(4-methylpyrimidin-2-yl)cyclopropane-1-carboxamide], the EC50 (commonly the midpoint of the concentration-response curve) was 10 to 100 nM. Next, `Cc1ccnc([C@H]2C[C@@H]2C(=O)Nc2cc(N(CC(=O)O)Cc3cn4cc(C5CC5)cc(N5CC(=O)N(C)C5=O)c4n3)ncn2)n1` [Example 461, N-((6-cyclopropyl-8-(3-methyl-2,4-dioxoimidazolidin-1-yl)imidazo[1,2-a]pyridin-2-yl)methyl)-N-(6-((1S,2S)-2-(4-methylpyrimidin-2-yl)cyclopropane-1-carboxamido)pyrimidin-4-yl)glycine]: 1 to 10 nM; `Cc1ccnc([C@H]2C[C@@H]2C(=O)Nc2cc(N(Cc3cn4cc(C5CC5)cc(N5CC(=O)N(C)C5=O)c4n3)C(=O)OC(C)OC(=O)C(C)C)ncn2)n1` (stereo partly drawn) [Example 467, 1-((((6-cyclopropyl-8-(3-methyl-2,4-dioxoimidazolidin-1-yl)imidazo[1,2-a]pyridin-2-yl)methyl)(6-((1S,2S)-2-(4-methylpyrimidin-2-yl)cyclopropane-1-carboxamido)pyrimidin-4-yl)carbamoyl)oxy)ethyl isobutyrate]: 100 to 1000 nM.

As for `Cc1ccnc([C@H]2C[C@@H]2C(=O)Nc2cc(N[C@H](C)c3cn4cc(C5CC5)cc(N5CC(=O)N(C)C5=O)c4n3)nc(CCO)n2)n1` [Example 468, (1S,2S)—N-(6-(((R)-1-(6-cyclopropyl-8-(3-methyl-2,4-dioxoimidazolidin-1-yl)imidazo[1,2-a]pyridin-2-yl)ethyl)amino)-2-(2-hydroxyethyl)pyrimidin-4-yl)-2-(4-methylpyrimidin-2-yl)cyclopropane-1-carboxamide], the EC50 is less than 1 nM. With `Cc1ccnc([C@H]2C[C@@H]2C(=O)Nc2cc(N[C@H](C)c3cn4cc(C5CC5)cc(N5CC(=O)N(C)C5=O)c4n3)nc(CO)n2)n1` [Example 469, (1S,2S)-N-(6-(((R)-1-(6-cyclopropyl-8-(3-methyl-2,4-dioxoimidazolidin-1-yl)imidazo[1,2-a]pyridin-2-yl)ethyl)amino)-2-(hydroxymethyl)pyrimidin-4-yl)-2-(4-methylpyrimidin-2-yl)cyclopropane-1-carboxamide] the figure was less than 1 nM; with `O=C(Nc1cc(N2C[C@@H](O)[C@@H](O)[C@@H]2c2cn3cc(C4CC4)ccc3n2)ncn1)[C@H]1C[C@@H]1c1cccc(Cl)c1` [Example 483, (1S,2S)-2-(3-chlorophenyl)-N-(6-((2S,3S,4R)-2-(6-cyclopropylimidazo[1,2-a]pyridin-2-yl)-3,4-dihydroxypyrrolidin-1-yl)pyrimidin-4-yl)cyclopropane-1-carboxamide], 100 to 1000 nM. Next, `O=C(Nc1cc(N2CC[C@H](O)[C@H]2c2cn3cc(C4CC4)ccc3n2)ncn1)[C@H]1C[C@@H]1c1cccc(Cl)c1` [Example 484, (1S,2S)-2-(3-chlorophenyl)-N-(6-((2R,3S)-2-(6-cyclopropylimidazo[1,2-a]pyridin-2-yl)-3-hydroxypyrrolidin-1-yl)pyrimidin-4-yl)cyclopropane-1-carboxamide]: greater than 6000 nM. For `O=C(Nc1cc(N2CC[C@@H](O)[C@@H]2c2cn3cc(C4CC4)ccc3n2)ncn1)[C@H]1C[C@@H]1c1cccc(Cl)c1` [Example 485, (1S,2S)-2-(3-chlorophenyl)-N-(6-((2S,3R)-2-(6-cyclopropylimidazo[1,2-a]pyridin-2-yl)-3-hydroxypyrrolidin-1-yl)pyrimidin-4-yl)cyclopropane-1-carboxamide], the EC50 fell in the range of 1000 to 6000 nM. Next, `C#Cc1cccc([C@H]2C[C@@H]2C(=O)Nc2cc(N3C[C@@H](O)C[C@@H]3c3cn4cc(C5CC5)ccc4n3)ncn2)c1` [Example 486, (1S,2S)-N-(6-((2R,4S)-2-(6-cyclopropylimidazo[1,2-a]pyridin-2-yl)-4-hydroxypyrrolidin-1-yl)pyrimidin-4-yl)-2-(3-ethynylphenyl)cyclopropane-1-carboxamide]: 1 to 10 nM. With `Cc1ccnc([C@H]2C[C@@H]2C(=O)Nc2cc(N[C@H](C)c3cn4cc(C(C)F)cc(N5CC(=O)N(C)C5=O)c4n3)ncn2)n1` (stereo partly drawn) [Example 530, (1S,2S)-N-(6-(((1R)-1-(6-(1-fluoroethyl)-8-(3-methyl-2,4-dioxoimidazolidin-1-yl)imidazo[1,2-a]pyridin-2-yl)ethyl)amino)pyrimidin-4-yl)-2-(4-methylpyrimidin-2-yl)cyclopropane-1-carboxamide] the figure was less than 1 nM; with `Cc1ccnc([C@H]2C[C@@H]2C(=O)Nc2cc(N[C@H](C)c3cn4cc(C(C)(F)F)cc(N5CC(=O)N(C)C5=O)c4n3)ncn2)n1` [Example 531, (1S,2S)-N-(6-(((R)-1-(6-(1,1-difluoroethyl)-8-(3-methyl-2,4-dioxoimidazolidin-1-yl)imidazo[1,2-a]pyridin-2-yl)ethyl)amino)pyrimidin-4-yl)-2-(4-methylpyrimidin-2-yl)cyclopropane-1-carboxamide], less than 1 nM; with `Cc1ccnc([C@H]2C[C@@H]2C(=O)Nc2cc(N[C@H](C)c3cn4cc(C5CC5)cc(N5CC(=O)NC5=O)c4n3)nc(C)n2)n1` [Example 532, (1S,2S)-N-(6-(((R)-1-(6-cyclopropyl-8-(2,4-dioxoimidazolidin-1-yl)imidazo[1,2-a]pyridin-2-yl)ethyl)amino)-2-methylpyrimidin-4-yl)-2-(4-methylpyrimidin-2-yl)cyclopropane-1-carboxamide], less than 1 nM. With `Cc1ccnc([C@H]2C[C@@H]2C(=O)Nc2cc(N[C@H](C)c3cn4cc(C5CC5)cc(N5CC(=O)NC5=O)c4n3)ncn2)n1` [Example 533, (1S,2S)-N-(6-(((R)-1-(6-cyclopropyl-8-(2,4-dioxoimidazolidin-1-yl)imidazo[1,2-a]pyridin-2-yl)ethyl)amino)pyrimidin-4-yl)-2-(4-methylpyrimidin-2-yl)cyclopropane-1-carboxamide] the figure was less than 1 nM; with `Cc1ccnc([C@H]2C[C@@H]2C(=O)Nc2cc(NCc3cn4cc(C5CC5(F)F)cc(N5CC(=O)N(C)C5=O)c4n3)ncn2)n1` (stereo partly drawn) [Example 535, (1S,2S)-N-(6-(((6-(2,2-difluorocyclopropyl)-8-(3-methyl-2,4-dioxoimidazolidin-1-yl)imidazo[1,2-a]pyridin-2-yl)methyl)amino)pyrimidin-4-yl)-2-(4-methylpyrimidin-2-yl)cyclopropane-1-carboxamide], less than 1 nM. As to `Cc1ccnc([C@H]2C[C@@H]2C(=O)Nc2cc(N[C@H](C)c3cn4cc(C5CC5)cc(N5CCN(C)C5=O)c4n3)ncn2)n1` [Example 536, (1S,2S)-N-(6-(((R)-1-(6-cyclopropyl-8-(3-methyl-2-oxoimidazolidin-1-yl)imidazo[1,2-a]pyridin-2-yl)ethyl)amino)pyrimidin-4-yl)-2-(4-methylpyrimidin-2-yl)cyclopropane-1-carboxamide], the EC50 is less than 1 nM. With `CCc1cc(N2CC(=O)N(C)C2=O)c2nc(CNc3cc(NC(=O)[C@H]4C[C@@H]4c4nccc(C)n4)nc(C)n3)cn2c1` [Example 537, (1S,2S)-N-(6-(((6-ethyl-8-(3-methyl-2,4-dioxoimidazolidin-1-yl)imidazo[1,2-a]pyridin-2-yl)methyl)amino)-2-methylpyrimidin-4-yl)-2-(4-methylpyrimidin-2-yl)cyclopropane-1-carboxamide] the figure was less than 1 nM. For the compound `CCc1cc(N2CC(=O)N(C)C2=O)c2nc(CNc3cc(NC(=O)[C@H]4C[C@@H]4c4nccc(C)n4)ncn3)cn2c1` [Example 538, (1S,2S)-N-(6-(((6-ethyl-8-(3-methyl-2,4-dioxoimidazolidin-1-yl)imidazo[1,2-a]pyridin-2-yl)methyl)amino)pyrimidin-4-yl)-2-(4-methylpyrimidin-2-yl)cyclopropane-1-carboxamide], the EC50 was less than 1 nM. Next, `Cc1ccnc([C@H]2C[C@@H]2C(=O)Nc2cc(OCc3cn4c(N5CC(=O)N(C)C5=O)cc(C5CC5)cc4n3)ncn2)n1` [Example 554, (1S,2S)-N-(6-((7-cyclopropyl-5-(3-methyl-2,4-dioxoimidazolidin-1-yl)imidazo[1,2-a]pyridin-2-yl)methoxy)pyrimidin-4-yl)-2-(4-methylpyrimidin-2-yl)cyclopropane-1-carboxamide]: 100 to 1000 nM. Take `O=C(Nc1ncccc1OCc1cn2cc(C3CC3)ccc2n1)[C@H]1C[C@@H]1c1cccc(Cl)c1` [Example 569, (1S,2S)-2-(3-chlorophenyl)-N-(3-((6-cyclopropylimidazo[1,2-a]pyridin-2-yl)methoxy)pyridin-2-yl)cyclopropane-1-carboxamide]: the EC50 fell in the range of 100 to 1000 nM. As to `O=C(Nc1nccnc1OCc1cn2cc(C3CC3)ccc2n1)[C@H]1C[C@@H]1c1cccc(Cl)c1` [Example 570, (1S,2S)-2-(3-chlorophenyl)-N-(3-((6-cyclopropylimidazo[1,2-a]pyridin-2-yl)methoxy)pyrazin-2-yl)cyclopropane-1-carboxamide], the EC50 was 10 to 100 nM.

For the compound `Cc1ccnc([C@H]2C[C@@H]2C(=O)Nc2cc(OCc3cn4cc(C5CC5)cc(N5CC6CC6C5=O)c4n3)cnn2)n1` (stereo partly drawn) [Example 571, (1S,2S)-N-(5-((6-cyclopropyl-8-(2-oxo-3-azabicyclo[3.1.0]hexan-3-yl)imidazo[1,2-a]pyridin-2-yl)methoxy)pyridazin-3-yl)-2-(4-methylpyrimidin-2-yl)cyclopropane-1-carboxamide], the EC50 is less than 1 nM.

For `O=C(Nc1nccc2nn(Cc3cn4cc(C5CC5)ccc4n3)cc12)[C@H]1C[C@@H]1c1cc(Cl)ccn1` [Example 577, (1S,2S)-2-(4-chloropyridin-2-yl)-N-(2-((6-cyclopropylimidazo[1,2-a]pyridin-2-yl)methyl)-2H-pyrazolo[4,3-c]pyridin-4-yl)cyclopropane-1-carboxamide], the EC50 was less than 1 nM.
